pEC50: −log10 of the molar value.
What was measured:
Test in all cases: Intracellular Ca2+ measurement (fura-2), T-REx-293 cells stably transfected
Type in all cases: cell-based
E824V mPIEZO1 = biological target: T1, E824V mPIEZO1 (Mus musculus, UniProt E2JF22, E824V); conditions: normalized to the WT Yoda1 maximum response
T1 construct: expressed in transfected cells
Procedure: (§1) T-REx-293 cell line was transfected with pcDNA4/TO-mPIEZO1 constructs using Lipofectamine 2000 (Invitrogen) as above and treated with 200 μg.mL^−1 zeocin (InvivoGen) to select for stably transfected cells. At least two strongly expressing clonal cell lines were established and tested for each variant. All cell lines were maintained in Dulbecco’s Modified Eagle’s medium (Invitrogen) supplemented with 10% heat-inactivated fetal calf serum (Sigma-Aldrich), penicillin (50 units.mL^−1) and streptomycin (0.5 mg.mL^−1) (Sigma-Aldrich) and grown at 37°C in a humidified 5% CO2 incubator.
(§2) For intracellular Ca^2+ assays, cells were plated at 80–90% confluence in 96-well plates 24 h prior to recordings (6–8 × 10^4 cells per well). […] Cells were washed with SBS and incubated at room temperature for 20 min prior to recordings. Equal volumes of 2x concentrated compounds were injected to test for acute channel activation. Pre-incubation with compounds occurred during the 20 min prior to recordings. To expose cell membranes to hypo-osmolality, an equal volume of hypotonic SBS (containing only 35 mM NaCl) was injected onto the cells. Measurements were made on a fluorescence plate reader (Flexstation III, Molecular Devices) at room temperature (21 ± 2°C). Fura-2 was excited at 340 nm and 380 nm and emitted light collected at 510 nm, with measurements shown as the change in fluorescence (F) ratio (ΔF340/380).
(§3) KC41 (Dooku1) was prepared as described.[28] All purchased chemicals and solvents were used without further purification unless otherwise stated. All compounds were at least 95% pure by 1H NMR. 1H Nuclear Magnetic Resonance spectra were recorded at 500 MHz using a Bruker DRX 500 instrument or at 400 MHz using a Bruker DPX 400. 1H spectra are referenced based on the residual proton in the solvent (e.g., the CHCl3, 0.01% in 99.99% CDCl3). Coupling constants (J) are reported to the nearest 0.1 Hz. 13C NMR spectra were recorded at 125 MHz on 500 MHz spectrometers or at 100 MHz on 400 MHz spectrometers. LC-MS was performed on a Bruker Daltronics running a gradient of increasing acetonitrile (5–95%) in H2O both containing 0.1% formic acid at 1 mL.min^−1, on a short path C18 reverse phase column, detecting compounds with both a diode array detector and a Bruker mass spectrum analyser. HRMS was performed on a Bruker Daltonics micrOTOF using positive electrospray ionisation (ES+). Automated column chromatograph was carried out using a Biotage Isolera Four, using either Sfär Silica D or KP-Silica cartridges. HPLC was performed on an Agilent 1290 Infinity Series equipped with a UV detector and Hyperprep C18 reverse phase column. Key to NMR abbreviations: s (singlet), br s (broad singlet) d (doublet), dd (doublet of doublets), ddd (doublet of doublets of doublets), t (triplet), dt (doublet of triples), q (quartet), m (multiplet), ap. t (apparent triplet). For experiments, Yoda1 and its analogues were prepared as 10 mM stock solutions in 100% dimethyl sulfoxide (DMSO) before serial dilution in DMSO and final dilution in aqueous solution. Cells were exposed to 0.1% DMSO for all concentrations of the compounds from 0 to 10 μM.

G1994D mPIEZO1 = biological target: T2, G1994D mPIEZO1 (Mus musculus, UniProt E2JF22, G1994D); conditions: for Mean (concentration-response, Figure 5g): G1994D
T2 construct: expressed in transfected cells
Procedure: as §1, §2, §3

WT mPIEZO1 = biological target: T3, WT mPIEZO1 (Mus musculus, UniProt E2JF22); conditions: 1.5 min exposure; fitted Hill equation
T3 construct: expressed in transfected cells
Procedure: as §1, §2, §3

I2286T mPIEZO1 = biological target: T4, I2286T mPIEZO1 (Mus musculus, UniProt E2JF22, I2286T)
T4 construct: expressed in transfected cells
Procedure: as §1, §2, §3

T2 sequence (E2JF22 whole entry G1994D): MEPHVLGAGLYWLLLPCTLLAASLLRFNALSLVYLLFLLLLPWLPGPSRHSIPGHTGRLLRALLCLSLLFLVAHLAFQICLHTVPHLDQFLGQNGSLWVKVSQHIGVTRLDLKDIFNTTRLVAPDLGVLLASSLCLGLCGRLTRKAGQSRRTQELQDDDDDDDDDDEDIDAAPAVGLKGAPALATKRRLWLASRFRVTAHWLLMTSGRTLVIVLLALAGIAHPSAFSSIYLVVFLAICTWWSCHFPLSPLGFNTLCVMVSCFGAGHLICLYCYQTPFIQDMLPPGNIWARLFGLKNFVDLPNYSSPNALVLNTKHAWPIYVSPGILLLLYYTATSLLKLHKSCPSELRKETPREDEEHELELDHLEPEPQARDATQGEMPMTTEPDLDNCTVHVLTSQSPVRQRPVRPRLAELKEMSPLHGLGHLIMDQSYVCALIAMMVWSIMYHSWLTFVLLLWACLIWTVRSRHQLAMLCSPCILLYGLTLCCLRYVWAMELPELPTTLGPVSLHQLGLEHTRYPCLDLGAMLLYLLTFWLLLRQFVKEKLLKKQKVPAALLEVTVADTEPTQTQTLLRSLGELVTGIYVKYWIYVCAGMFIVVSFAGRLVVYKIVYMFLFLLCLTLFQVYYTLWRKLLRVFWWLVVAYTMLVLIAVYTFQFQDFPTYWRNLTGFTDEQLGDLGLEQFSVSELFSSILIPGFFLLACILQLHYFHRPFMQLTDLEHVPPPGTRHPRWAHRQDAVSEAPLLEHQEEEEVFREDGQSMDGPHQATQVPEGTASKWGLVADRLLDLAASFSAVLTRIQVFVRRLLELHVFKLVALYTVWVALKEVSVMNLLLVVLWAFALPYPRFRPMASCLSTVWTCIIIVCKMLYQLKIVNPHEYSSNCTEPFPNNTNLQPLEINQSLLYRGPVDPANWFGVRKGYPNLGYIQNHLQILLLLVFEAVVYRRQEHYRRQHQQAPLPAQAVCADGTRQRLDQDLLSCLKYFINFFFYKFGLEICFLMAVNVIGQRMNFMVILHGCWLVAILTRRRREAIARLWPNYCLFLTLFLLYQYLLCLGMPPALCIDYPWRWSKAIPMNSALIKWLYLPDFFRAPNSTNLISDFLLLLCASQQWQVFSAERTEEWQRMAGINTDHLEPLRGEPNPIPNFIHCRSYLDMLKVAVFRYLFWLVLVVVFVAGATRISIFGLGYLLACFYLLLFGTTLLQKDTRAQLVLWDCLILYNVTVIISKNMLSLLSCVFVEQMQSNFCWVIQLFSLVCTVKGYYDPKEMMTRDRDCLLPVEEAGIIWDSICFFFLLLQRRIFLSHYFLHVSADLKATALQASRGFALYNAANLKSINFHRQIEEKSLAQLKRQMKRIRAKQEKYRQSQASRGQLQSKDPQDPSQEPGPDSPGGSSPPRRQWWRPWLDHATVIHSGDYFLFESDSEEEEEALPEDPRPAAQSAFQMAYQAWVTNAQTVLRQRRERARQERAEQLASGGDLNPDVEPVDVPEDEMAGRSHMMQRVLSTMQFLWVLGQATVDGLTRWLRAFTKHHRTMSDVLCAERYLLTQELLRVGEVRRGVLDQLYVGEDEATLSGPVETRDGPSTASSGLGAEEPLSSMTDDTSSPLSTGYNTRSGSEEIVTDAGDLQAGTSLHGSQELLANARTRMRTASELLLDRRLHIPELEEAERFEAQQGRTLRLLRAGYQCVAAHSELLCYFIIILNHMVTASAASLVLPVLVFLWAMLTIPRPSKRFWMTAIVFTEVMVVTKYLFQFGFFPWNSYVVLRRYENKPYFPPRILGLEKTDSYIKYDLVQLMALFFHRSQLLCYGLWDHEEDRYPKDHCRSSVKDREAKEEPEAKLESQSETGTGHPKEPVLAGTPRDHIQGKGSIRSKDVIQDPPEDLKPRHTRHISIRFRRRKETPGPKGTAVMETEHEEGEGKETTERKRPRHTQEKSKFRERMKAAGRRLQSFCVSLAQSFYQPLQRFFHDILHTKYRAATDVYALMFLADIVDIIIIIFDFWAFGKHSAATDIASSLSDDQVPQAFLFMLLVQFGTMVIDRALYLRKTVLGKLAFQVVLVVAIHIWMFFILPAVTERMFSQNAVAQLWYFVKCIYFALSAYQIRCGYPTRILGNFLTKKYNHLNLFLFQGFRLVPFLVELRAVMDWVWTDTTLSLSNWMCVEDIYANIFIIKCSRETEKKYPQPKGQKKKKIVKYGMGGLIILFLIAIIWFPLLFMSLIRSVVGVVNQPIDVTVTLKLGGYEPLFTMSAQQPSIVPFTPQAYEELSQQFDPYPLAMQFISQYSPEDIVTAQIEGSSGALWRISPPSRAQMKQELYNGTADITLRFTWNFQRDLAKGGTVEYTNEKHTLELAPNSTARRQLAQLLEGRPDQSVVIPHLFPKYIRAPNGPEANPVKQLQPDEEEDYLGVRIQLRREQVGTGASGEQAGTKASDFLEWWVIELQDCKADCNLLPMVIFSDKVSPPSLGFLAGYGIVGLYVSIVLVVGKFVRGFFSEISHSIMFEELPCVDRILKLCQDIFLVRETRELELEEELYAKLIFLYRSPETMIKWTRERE
T4 sequence (E2JF22 whole entry I2286T): as the sequence (E2JF22 whole entry G1994D) above, with D1994G, I2286T counted along it
T3 sequence (E2JF22 whole entry): as the sequence (E2JF22 whole entry G1994D) above, with D1994G counted along it
T1 sequence (E2JF22 whole entry E824V): as the sequence (E2JF22 whole entry G1994D) above, with E824V, D1994G counted along it

Compound: O=C(O)c1ccc(-c2cnc(SCc3c(Cl)cccc3Cl)s2)cc1 [Yoda2b, 4-(2-([(2,6-Dichlorophenyl)methyl]sulfanyl)-1,3-thiazol-5-yl)benzoic acid]
- pEC50 (E824V mPIEZO1): 6.12
- pEC50 (G1994D mPIEZO1; 1.5 min exposure): 6.00
- Mean (concentration-response, Figure 5g) (G1994D mPIEZO1; Yoda2b concentration 0.01 µM): -0.02242
- Mean (concentration-response, Figure 5g) (G1994D mPIEZO1; Yoda2b concentration 0.03 µM): 0.00849
- Mean (concentration-response, Figure 5g) (G1994D mPIEZO1; Yoda2b concentration 0.1 µM): 0.01915
- Mean (concentration-response, Figure 5g) (G1994D mPIEZO1; Yoda2b concentration 0.3 µM): 0.1358
- Mean (concentration-response, Figure 5g) (G1994D mPIEZO1; Yoda2b concentration 1 µM): 0.5075
- Mean (concentration-response, Figure 5g) (G1994D mPIEZO1; Yoda2b concentration 3 µM): 0.8675
- Mean (concentration-response, Figure 5g) (G1994D mPIEZO1; Yoda2b concentration 10 µM): 1
- pEC50 (WT mPIEZO1): 6.85
- Mean (ΔFratio) (I2286T mPIEZO1; 0.3 µM, time 0 s): 0.00239
- Mean (ΔFratio) (I2286T mPIEZO1; 0.3 µM, time 5 s): -0.00843
- Mean (ΔFratio) (I2286T mPIEZO1; 0.3 µM, time 10 s): 0.00738
- Mean (ΔFratio) (I2286T mPIEZO1; 0.3 µM, time 15 s): -3.95E-05
- Mean (ΔFratio) (I2286T mPIEZO1; 0.3 µM, time 20 s): -9.74E-04
- Mean (ΔFratio) (I2286T mPIEZO1; 0.3 µM, time 25 s): -3.25E-04
- Mean (ΔFratio) (I2286T mPIEZO1; 0.3 µM, time 30 s): -0.07905
- Mean (ΔFratio) (I2286T mPIEZO1; 0.3 µM, time 35 s): -0.08536
- Mean (ΔFratio) (I2286T mPIEZO1; 0.3 µM, time 40 s): 0.2313
- Mean (ΔFratio) (I2286T mPIEZO1; 0.3 µM, time 45 s): 0.4546
- Mean (ΔFratio) (I2286T mPIEZO1; 0.3 µM, time 50 s): 0.5954
- Mean (ΔFratio) (I2286T mPIEZO1; 0.3 µM, time 55 s): 0.6989
- Mean (ΔFratio) (I2286T mPIEZO1; 0.3 µM, time 60 s): 0.7448
- Mean (ΔFratio) (I2286T mPIEZO1; 0.3 µM, time 65 s): 0.7353
- Mean (ΔFratio) (I2286T mPIEZO1; 0.3 µM, time 70 s): 0.7286
- Mean (ΔFratio) (I2286T mPIEZO1; 0.3 µM, time 75 s): 0.7236
- Mean (ΔFratio) (I2286T mPIEZO1; 0.3 µM, time 80 s): 0.681
- Mean (ΔFratio) (I2286T mPIEZO1; 0.3 µM, time 85 s): 0.6794
- Mean (ΔFratio) (I2286T mPIEZO1; 0.3 µM, time 90 s): 0.6567
- Mean (ΔFratio) (I2286T mPIEZO1; 0.3 µM, time 95 s): 0.6006
- Mean (ΔFratio) (I2286T mPIEZO1; 0.3 µM, time 100 s): 0.6101
- Mean (ΔFratio) (I2286T mPIEZO1; 0.3 µM, time 105 s): 0.603
- Mean (ΔFratio) (I2286T mPIEZO1; 0.3 µM, time 110 s): 0.5805
- Mean (ΔFratio) (I2286T mPIEZO1; 0.3 µM, time 115 s): 0.5587
- Mean (ΔFratio) (I2286T mPIEZO1; 0.3 µM, time 120 s): 0.5669
- Mean (ΔFratio) (I2286T mPIEZO1; 0.3 µM, time 125 s): 0.5131
- Mean (ΔFratio) (I2286T mPIEZO1; 0.3 µM, time 130 s): 0.5257
- Mean (ΔFratio) (I2286T mPIEZO1; 3 µM, time 0 s): -0.00226
- Mean (ΔFratio) (I2286T mPIEZO1; 3 µM, time 5 s): 0.01302
- Mean (ΔFratio) (I2286T mPIEZO1; 3 µM, time 10 s): -0.01316
- Mean (ΔFratio) (I2286T mPIEZO1; 3 µM, time 15 s): -0.00422
- Mean (ΔFratio) (I2286T mPIEZO1; 3 µM, time 20 s): 0.00798
- Mean (ΔFratio) (I2286T mPIEZO1; 3 µM, time 25 s): -0.00136
- Mean (ΔFratio) (I2286T mPIEZO1; 3 µM, time 30 s): -0.4575
- Mean (ΔFratio) (I2286T mPIEZO1; 3 µM, time 35 s): -0.0464
- Mean (ΔFratio) (I2286T mPIEZO1; 3 µM, time 40 s): 0.8681
- Mean (ΔFratio) (I2286T mPIEZO1; 3 µM, time 45 s): 1.381
- Mean (ΔFratio) (I2286T mPIEZO1; 3 µM, time 50 s): 1.657
- Mean (ΔFratio) (I2286T mPIEZO1; 3 µM, time 55 s): 1.797
- Mean (ΔFratio) (I2286T mPIEZO1; 3 µM, time 60 s): 1.789
- Mean (ΔFratio) (I2286T mPIEZO1; 3 µM, time 65 s): 1.7806
- Mean (ΔFratio) (I2286T mPIEZO1; 3 µM, time 70 s): 1.778
- Mean (ΔFratio) (I2286T mPIEZO1; 3 µM, time 75 s): 1.702
- Mean (ΔFratio) (I2286T mPIEZO1; 3 µM, time 80 s): 1.669
- Mean (ΔFratio) (I2286T mPIEZO1; 3 µM, time 85 s): 1.657
- Mean (ΔFratio) (I2286T mPIEZO1; 3 µM, time 90 s): 1.535
- Mean (ΔFratio) (I2286T mPIEZO1; 3 µM, time 95 s): 1.511
- Mean (ΔFratio) (I2286T mPIEZO1; 3 µM, time 100 s): 1.421
- Mean (ΔFratio) (I2286T mPIEZO1; 3 µM, time 105 s): 1.3863
- Mean (ΔFratio) (I2286T mPIEZO1; 3 µM, time 110 s): 1.364
- Mean (ΔFratio) (I2286T mPIEZO1; 3 µM, time 115 s): 1.304
- Mean (ΔFratio) (I2286T mPIEZO1; 3 µM, time 120 s): 1.27
- Mean (ΔFratio) (I2286T mPIEZO1; 3 µM, time 125 s): 1.258
- Mean (ΔFratio) (I2286T mPIEZO1; 3 µM, time 130 s): 1.2123
- pEC50 (I2286T mPIEZO1; 1.5 min exposure): 6.15
- Mean (concentration-response, Figure 3l) (I2286T mPIEZO1; 1.5 min exposure, 0.01 µM): 0.00606
- Mean (concentration-response, Figure 3l) (I2286T mPIEZO1; 1.5 min exposure, 0.03 µM): 0.01869
- Mean (concentration-response, Figure 3l) (I2286T mPIEZO1; 1.5 min exposure, 0.1 µM): 0.08252
- Mean (concentration-response, Figure 3l) (I2286T mPIEZO1; 1.5 min exposure, 0.3 µM): 0.2937
- Mean (concentration-response, Figure 3l) (I2286T mPIEZO1; 1.5 min exposure, 1 µM): 0.643
- Mean (concentration-response, Figure 3l) (I2286T mPIEZO1; 1.5 min exposure, 3 µM): 0.8962
- Mean (concentration-response, Figure 3l) (I2286T mPIEZO1; 1.5 min exposure, 10 µM): 1.056
- side-by-side comparison of channel activation with Yoda1 (I2286T mPIEZO1; same 96-well plate): more effective at activating I2286T channels than Yoda1

— PMC12337661, “PIEZO1 mechanical insensitivity in generalized lymphatic dysplasia with the potential for pharmacological rescue” (iScience, 2025)
